Marks after values point to notes of the source that are not given here.
Tests used:
C57BL/6J mice [1] = experiment: Visceral fat reduction: tissue weights in mice made obese on high-fat, high-sugar feed (Example 4); format: in vivo; settings: obese female C57BL/6J mice, 3 weeks test feed, 7wt% test oil (CLA group: 0.5wt% CLA + 6.5wt% soybean oil)
Description: The visceral fat reduction effects or visceral fat accumulation suppression effects of the PPAR agonist and oil/fat composition of the present invention are evaluated by administering the candidate compound to a laboratory animal for a specific time period (e.g. 4 weeks), and then measuring the amount of visceral fat in the adipose tissue around the testes, the adipose tissue around the kidneys and the like.
10-week old female C57BL/6J mice (from Clea Japan) were made obese by keeping for 3 weeks on a high-fat, high-sugar feed (made by Oriental Yeast) having the composition shown in Table 4. The mice were then divided into groups of 8, and were kept for a further 3 weeks on a test feed consisting of a fat-free growth-period-use standard mixed feed (AIN-93G, made by Oriental Yeast) with 2wt% soybean oil as an essential fatty acid source and either 7wt% of a test oil or 7wt% of a control oil added. After 3 weeks, the mice were fed for the last time and then not fed for 16 hours, after which the whole blood was collected from the mice using a heparinized syringe under ether anesthesia, and then the mice were dissected, with the adipose tissue around the kidneys, the adipose tissue around the ovaries, the liver, the kidneys and the spleen being extracted, and the weights thereof being measured. Each organ weight thus obtained was divided by the body weight to obtain the ratio of the organ weight to the body weight. The adipose tissue around the kidneys and the adipose tissue around the ovaries was evaluated as visceral adipose tissue. The collected blood was centrifuged for 15 minutes at 3000 rpm while cooling to obtain the plasma, and then the total cholesterol concentration was measured using Cholesterol C Test Wako (made by Wako Pure Chemical Industries), the neutral lipid concentration using Triglyceride G Test Wako (made by Wako Pure Chemical Industries), and the free fatty acid concentration using NEFA C Test Wako (made by Wako Pure Chemical Industries). The groups set up were a test group for which pomegranate seed oil prepared as in Example 1 was added to the feed (pomegranate seed oil group), a control group for which soybean oil was added to the feed (soybean oil group), and a comparative group for which high-DHA-containing fish oil (DHA content 20wt%, made by Harima Chemicals), which is known to have obesity ameliorating effects, was added to the feed (fish oil group). Also set up was a group for which 6.5wt% of soybean oil and 0.5wt% of CLA (made by Kenko Tsusho, 70% purity) was added to the feed (CLA group). […] Moreover, also set up was a group that were fed a standard feed containing 9wt% of soybean oil throughout the test period right from the start (standard feed group, n=3). During the test period, the mice were allowed to drink water freely, but feeding was limited such that the intake was the same as for the soybean oil group.

C57BL/6J mice [2] = experiment: Lipid metabolism amelioration: plasma lipid concentrations in obese mice (Example 4); format: in vivo; settings: after 16 hours without feed, 3 weeks test feed, 7wt% test oil (CLA 0.5wt%), soybean oil group = 100
Description: 10-week old female C57BL/6J mice (from Clea Japan) were made obese by keeping for 3 weeks on a high-fat, high-sugar feed (made by Oriental Yeast) having the composition shown in Table 4. The mice were then divided into groups of 8, and were kept for a further 3 weeks on a test feed consisting of a fat-free growth-period-use standard mixed feed (AIN-93G, made by Oriental Yeast) with 2wt% soybean oil as an essential fatty acid source and either 7wt% of a test oil or 7wt% of a control oil added. After 3 weeks, the mice were fed for the last time and then not fed for 16 hours, after which the whole blood was collected from the mice using a heparinized syringe under ether anesthesia, and then the mice were dissected, with the adipose tissue around the kidneys, the adipose tissue around the ovaries, the liver, the kidneys and the spleen being extracted, and the weights thereof being measured. Each organ weight thus obtained was divided by the body weight to obtain the ratio of the organ weight to the body weight. The adipose tissue around the kidneys and the adipose tissue around the ovaries was evaluated as visceral adipose tissue. The collected blood was centrifuged for 15 minutes at 3000 rpm while cooling to obtain the plasma, and then the total cholesterol concentration was measured using Cholesterol C Test Wako (made by Wako Pure Chemical Industries), the neutral lipid concentration using Triglyceride G Test Wako (made by Wako Pure Chemical Industries), and the free fatty acid concentration using NEFA C Test Wako (made by Wako Pure Chemical Industries). The groups set up were a test group for which pomegranate seed oil prepared as in Example 1 was added to the feed (pomegranate seed oil group), a control group for which soybean oil was added to the feed (soybean oil group), and a comparative group for which high-DHA-containing fish oil (DHA content 20wt%, made by Harima Chemicals), which is known to have obesity ameliorating effects, was added to the feed (fish oil group). […]

mice = experiment: Preliminary tests of CLA added to feed (liver enlargement, food intake); format: in vivo; settings: 1wt% or more of CLA added to the feed
PPARγ = target: T1, PPARγ (Homo sapiens, UniProt P37231); experiment: PPARγ agonist activity, GAL4-PPARγ chimera / 4×UASg-luc luciferase reporter assay in CV-1 cells; settings: for Relative activity (n=3): untreated control = 100
T1 sequence (P37231 204-505): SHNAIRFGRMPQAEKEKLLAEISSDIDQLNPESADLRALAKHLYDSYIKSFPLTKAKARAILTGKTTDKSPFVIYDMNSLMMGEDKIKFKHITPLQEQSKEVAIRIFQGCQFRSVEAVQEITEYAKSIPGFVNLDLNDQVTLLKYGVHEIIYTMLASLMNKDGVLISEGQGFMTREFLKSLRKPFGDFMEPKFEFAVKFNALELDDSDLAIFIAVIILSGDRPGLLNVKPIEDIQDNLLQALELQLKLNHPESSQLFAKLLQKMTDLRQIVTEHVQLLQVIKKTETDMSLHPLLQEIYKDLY
Description: Moreover, untreated control groups were established by exchanging with a culture medium prepared by diluting only DMSO with DMEM containing 10% activated-charcoal-treated bovine fetal serum. […] One day after the culture medium exchange, the culture medium was removed, the cells were washed with phosphate buffered saline (PBS), a cell solution was prepared using PicaGene cell solution Luc (made by Toyo Ink), 20µl of the cell solution was reacted with 100µl of a PicaGene luminescent substrate (made by Toyo Ink), and the luciferase activity was measured using a luminometer (Berthold Lumat LB9501) with the measurement time set to 10 seconds.
Letting the ratio of the measurement group (the group for which pM-PPAR and 4×UASg-luc were transfected) to the control group (the group for which pM and 4×UASg-luc were transfected) in the case of the untreated control groups be (a), and the ratio of the measurement group to the control group in the case of the ligand-reagent-added groups be (b), the PPARγ agonist activity caused by the ligand reagent was evaluated using the ratio (b)/(a). To avoid errors due to differences in the transfection efficiency between experiments, TZD (1µm) was put in as positive control groups and the values between the experiments were corrected.

## conjugated linoleic acid [CLA]
C57BL/6J mice [1]; soybean oil group 0.304
  Ratio of tissue weight to body weight (mean, n=8): Fat around kidneys: 0.240
C57BL/6J mice [1]; soybean oil group 0.391
  Ratio of tissue weight to body weight (mean, n=8): Spleen: 0.450
C57BL/6J mice [1]; soybean oil group 0.839
  Ratio of tissue weight to body weight (mean, n=8): Fat around ovaries: 0.650
C57BL/6J mice [1]; soybean oil group 1.128
  Ratio of tissue weight to body weight (mean, n=8): Kidneys: 1.280
C57BL/6J mice [1]; soybean oil group 1.144
  Ratio of tissue weight to body weight (mean, n=8): Visceral fat: 0.890
C57BL/6J mice [1]; soybean oil group 4.454
  Ratio of tissue weight to body weight (mean, n=8): Liver: 4.920
C57BL/6J mice [2]
  Relative blood lipid concentration (mean, n=8): Free fatty acids: 71* % of soybean oil group
  Relative blood lipid concentration (mean, n=8): Neutral lipids: 100 mg/dL
  Relative blood lipid concentration (mean, n=8): Total cholesterol: 89 mg/dL
mice
  food intake: drop in the mice's food intake
  liver enlargement: 1.4 times relative to a control
PPARγ; 20µM final fatty acid concentration, untreated control group = 100
  Relative activity (mean, n=3): 125
PPARγ; concentration 3 (µm [sic]), 3 µM
  Relative activity (n=3): 129
PPARγ; concentration 9 (µm [sic]), 9 µM
  Relative activity (n=3): 109
PPARγ; concentration 30 (µm [sic]), 30 µM
  Relative activity (n=3): 110
PPARγ; concentration 90 (µm [sic]), 90 µM
  Relative activity (n=3): 159
PPARγ; concentration 300 (µm [sic]), 300 µM
  Relative activity (n=3): 323

— patent EP1175901A1, “PEROXISOME ACTIVATOR-RESPONSIVE RECEPTOR AGONISTS” (Kaneka Corporation, priority 1999, dated 2000)
